Experimental findings from patent US5631265A, “8-substituted tetrahydro-beta-carbolines” (Eli Lilly and Company, priority 1995, dated 1997) are described below.

For test [1], the target named is T1, 5-HT2C receptor (Rattus norvegicus, UniProt P08909).
T1 sequence (P08909 33-460): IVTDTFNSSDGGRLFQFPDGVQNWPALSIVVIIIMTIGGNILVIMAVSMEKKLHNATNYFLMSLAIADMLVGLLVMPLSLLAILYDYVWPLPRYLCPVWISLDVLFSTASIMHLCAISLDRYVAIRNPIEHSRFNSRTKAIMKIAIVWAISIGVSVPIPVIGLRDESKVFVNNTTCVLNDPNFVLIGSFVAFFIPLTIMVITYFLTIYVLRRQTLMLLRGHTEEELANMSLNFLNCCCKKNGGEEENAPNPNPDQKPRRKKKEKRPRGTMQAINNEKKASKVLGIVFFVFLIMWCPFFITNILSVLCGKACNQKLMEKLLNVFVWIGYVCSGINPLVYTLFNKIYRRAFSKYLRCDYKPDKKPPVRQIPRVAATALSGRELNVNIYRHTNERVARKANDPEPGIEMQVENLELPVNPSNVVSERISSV
The test is described as follows: Radioligand binding, Rat 2C (Table I). The procedure:
(§1) [^3 H]5-HT binding studies. Binding assays were automated using a Biomek 1000 (Beckman instruments, Fullerton, Calif.) and were performed in triplicate in 0.8 ml total volume. Membrane suspension, 200 μl, (0.04-0.27 mg protein) and 200 μl of drug dilution in water were added to 400 μl of 67 mM Tris-HCl, pH 7.4, containing [^3 H]5-HT, pargyline, CaCl2, and L-ascorbic acid. Final concentrations of pargyline, CaCl2 and L-ascorbic acid were 10 μM, 3 mM and 0.1%, respectively. Tubes were incubated at 37° C. for 15 min or at 0° C. for 2 hours (binding equilibria were verified for both of these conditions), then rapidly filtered using a Brandel cell harvester (Model MB-48R; Brandel, Gaithersburg, Md.) through Whatman GF/B filters which had been presoaked in 0.5% polyethylenimine and precooled with ice-cold 50 mM Tris-HCl, pH 7.4. The filters were then washed rapidly four times with one ml ice-cold 50 mM Tris-HCl, pH 7.4. The amount of [^3 H]5-HT trapped on the filters was determined by liquid scintillation spectrometry (Ready Protein and Beckman automated using a Biomek 1000 (Beckman Instruments, Fullerton, Calif.) and were performed in triplicate in 0.8 ml total volume. Membrane suspension, 200 μl, (0.04-0.27 mg protein) and 200 μl of drug dilution in water were added to 400 μl of 67 mM Tris-HCl, pH 7.4, containing [^3 H]5-HT, pargyline, CaCl2, and L-ascorbic acid. Final concentrations of pargyline, CaCl2 and L-ascorbic acid were 10 μM, 3 mM and 0.1%, respectively. Tubes were incubated at 37° C. for 15 min or at 0° C. for 2 hours (binding equilibria were verified for both of these conditions), then rapidly filtered using a Brandel cell harvester (Model MB-48R; Brandel, Gaithersburg, Md.) through Whatman GF/B filters which had been presoaked in 0.5% polyethylenimine and precooled with ice-cold 50 mM Tris-HCl, pH 7.4. […]
(§2) Compounds of this invention were tested using the described in vitro assay. Results of the radioligand binding experiments are illustrated in Table I. The values reported in Table I are expressed as Ki calculated as described infra.

The target of test [2] is T2, cloned rat 5-HT2B receptor (Rattus norvegicus, UniProt P30994).
T2 construct: expressed in transfected cells
T2 sequence (P30994 whole entry): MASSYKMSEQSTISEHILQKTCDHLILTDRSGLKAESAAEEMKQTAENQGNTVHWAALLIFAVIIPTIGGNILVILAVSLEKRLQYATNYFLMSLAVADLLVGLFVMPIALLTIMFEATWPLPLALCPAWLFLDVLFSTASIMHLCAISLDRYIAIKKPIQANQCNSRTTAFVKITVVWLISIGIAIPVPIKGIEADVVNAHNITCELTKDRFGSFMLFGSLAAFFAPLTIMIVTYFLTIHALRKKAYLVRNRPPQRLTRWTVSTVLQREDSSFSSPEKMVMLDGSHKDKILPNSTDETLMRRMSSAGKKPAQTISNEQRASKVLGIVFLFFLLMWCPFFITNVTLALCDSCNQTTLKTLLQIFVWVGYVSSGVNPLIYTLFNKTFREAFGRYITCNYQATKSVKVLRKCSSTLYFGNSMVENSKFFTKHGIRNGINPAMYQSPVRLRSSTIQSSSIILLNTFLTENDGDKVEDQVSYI
As to the kind of experiment: Radioligand binding, [3H]5-HT, cloned rat 5-HT2B receptor (Table I). On the procedure:
Radioligand Binding Studies
Membrane preparation from transformed cells. Suspension cells expressing the cloned rat 5-HT2B receptor were harvested by centrifugation at 2,200 ×g for 15 min at 4° C. Kursar, J. D., D. L. Nelson, D. B. Wainscott, M. L. Cohen, and M. Baez, Mol. Pharmacol., 42: 549-557 (1992). Membranes for the binding assays were prepared by vortexing the pellet in 50 mM Tris-HCl, pH 7.4 (0.5×10^9 cells/30 ml). The tissue suspension was then centrifuged at 39,800 ×g for 10 min at 4° C. This procedure was repeated for a total of three washes, with a 10 minute incubation at 37° C. between the first and second wash. The final pellet was homogenized in 67 mM Tris-HCl, pH 7.4 (at 20-40 and 12.5 million cells/ml, original cell number, for cells expressing low and relatively high levels of the 5-HT2B receptor, respectively) using a Tissumizer (Tekmar, Cincinnati, Ohio), setting 65 for 15 seconds.
[^3 H]5-HT binding studies. Binding assays were automated using a Biomek 1000 (Beckman instruments, Fullerton, Calif.) and were performed in triplicate in 0.8 ml total volume. Membrane suspension, 200 μl, (0.04-0.27 mg protein) and 200 μl of drug dilution in water were added to 400 μl of 67 mM Tris-HCl, pH 7.4, containing [^3 H]5-HT, pargyline, CaCl2, and L-ascorbic acid. Final concentrations of pargyline, CaCl2 and L-ascorbic acid were 10 μM, 3 mM and 0.1%, respectively. Tubes were incubated at 37° C. for 15 min or at 0° C. for 2 hours (binding equilibria were verified for both of these conditions), then rapidly filtered using a Brandel cell harvester (Model MB-48R; Brandel, Gaithersburg, Md.) through Whatman GF/B filters which had been presoaked in 0.5% polyethylenimine and precooled with ice-cold 50 mM Tris-HCl, pH 7.4. The filters were then washed rapidly four times with one ml ice-cold 50 mM Tris-HCl, pH 7.4. The amount of [^3 H]5-HT trapped on the filters was determined by liquid scintillation spectrometry (Ready Protein and Beckman automated using a Biomek 1000 (Beckman Instruments, Fullerton, Calif.) and were performed in triplicate in 0.8 ml total volume. Membrane suspension, 200 μl, (0.04-0.27 mg protein) and 200 μl of drug dilution in water were added to 400 μl of 67 mM Tris-HCl, pH 7.4, containing [^3 H]5-HT, pargyline, CaCl2, and L-ascorbic acid. Final concentrations of pargyline, CaCl2 and L-ascorbic acid were 10 μM, 3 mM and 0.1%, respectively. Tubes were incubated at 37° C. for 15 min or at 0° C. for 2 hours (binding equilibria were verified for both of these conditions), then rapidly filtered using a Brandel cell harvester (Model MB-48R; Brandel, Gaithersburg, Md.) through Whatman GF/B filters which had been presoaked in 0.5% polyethylenimine and precooled with ice-cold 50 mM Tris-HCl, pH 7.4. The filters were then washed rapidly four times with one ml ice-cold 50 mM Tris-HCl, pH 7.4. The amount of [^3 H]5-HT trapped on the filters was determined by liquid scintillation spectrometry (Ready Protein and Beckman determined for best fit to a one-site or a two-site binding model using a partial […]. De Lean, A., A. A. Hancock, and R. J. Lefkowitz, Mol. Pharmacol., 21:5-16 (1981). The following equation was used for a one-site binding model, [formula] where Bound=amount of [^3 H]5-HT specifically bound, Bmax =maximum number of binding sites, Kd =equilibrium dissociation constant and [L]=free concentration of [^3 H]5-HT, or a two-site binding model, [formula] where Bound=amount of [^3 H]5-HT specifically bound, Bmax1 =maximum number of high affinity binding sites, Bmax2 =maximum number of low affinity binding sites, Kd1 =equilibrium dissociation constant for the high affinity site, Kd2 =equilibrium dissociation constant for the low affinity site and [L]=free concentration of [^3 H]5-HT. […]

Test [3] has as its target T3, 5-HT2C receptor (Homo sapiens, UniProt P28335).
T3 sequence (P28335 33-458): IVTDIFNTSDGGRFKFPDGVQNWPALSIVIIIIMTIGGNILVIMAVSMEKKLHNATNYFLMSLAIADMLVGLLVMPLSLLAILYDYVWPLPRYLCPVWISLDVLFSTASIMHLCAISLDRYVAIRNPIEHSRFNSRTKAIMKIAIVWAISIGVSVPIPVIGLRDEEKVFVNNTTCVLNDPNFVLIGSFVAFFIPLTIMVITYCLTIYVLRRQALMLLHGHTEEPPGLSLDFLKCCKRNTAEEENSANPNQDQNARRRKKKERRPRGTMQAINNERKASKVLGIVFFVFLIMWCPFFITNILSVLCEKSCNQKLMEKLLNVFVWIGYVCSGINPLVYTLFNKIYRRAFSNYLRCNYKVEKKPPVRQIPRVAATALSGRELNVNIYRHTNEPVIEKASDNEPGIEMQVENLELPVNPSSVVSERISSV
The test is described as follows: Radioligand binding, Human 2C (Table I). The procedure:
as §1, §2

Test [4] has as its target 5-HT2B receptor (Homo sapiens, UniProt P41595). As to the kind of experiment: Radioligand binding, Human 2B (Table I). The procedure: as §1, with “Tubes were incubated at 37° C. for 15 min or at 0° C. for 2 hours (binding equilibria were verified for both of these conditions), then rapidly filtered using a Brandel cell harvester (Model MB-48R; Brandel, Gaithersburg, Md.) through Whatman GF/B filters which had been presoaked in 0.5% polyethylenimine and precooled with ice-cold 50 mM Tris-HCl, pH 7.4. The filters were then washed rapidly four times with one ml ice-cold 50 mM Tris-HCl, pH 7.4.” left out

Setting [5] is: Rat 2C, Ki from IC50 by Cheng-Prusoff, read-out: Ki Rat 2C.
Setting [6] is: cloned rat 5-HT2B receptor, [3H]5-HT, Ki from IC50 by Cheng-Prusoff, read-out: Ki Rat 2B.
Setting [7] is: Human 2C, Ki from IC50 by Cheng-Prusoff, read-out: Ki Human 2C.

Read-outs that look alike come from different tables or passages of the source.

Chain of 5-HT2B receptor (P41595 whole entry): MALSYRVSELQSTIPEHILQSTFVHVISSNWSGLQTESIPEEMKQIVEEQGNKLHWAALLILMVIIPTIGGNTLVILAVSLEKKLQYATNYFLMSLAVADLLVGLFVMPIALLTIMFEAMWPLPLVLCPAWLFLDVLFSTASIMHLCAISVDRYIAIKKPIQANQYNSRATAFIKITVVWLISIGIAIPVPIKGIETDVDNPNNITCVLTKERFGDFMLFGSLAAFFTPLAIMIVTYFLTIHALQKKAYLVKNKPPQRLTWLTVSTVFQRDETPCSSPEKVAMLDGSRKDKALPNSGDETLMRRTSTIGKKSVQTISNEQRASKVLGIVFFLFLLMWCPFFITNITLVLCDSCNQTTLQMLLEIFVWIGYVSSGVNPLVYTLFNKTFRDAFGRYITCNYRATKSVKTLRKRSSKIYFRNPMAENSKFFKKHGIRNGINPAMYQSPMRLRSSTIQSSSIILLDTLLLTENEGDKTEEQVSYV

Usually Ki stands for the dissociation constant of the complex between target and ligand, obtained from inhibition or displacement. For the compound `Cc1ccc2c3c([nH]c2c1Br)CNCC3` [Example 1, 7-methyl-8-bromo-1,2,3,4-tetrahydro-9H-pyrido[3,4b]-indole], the values for the Ki in test [1] (setting [5]), in test [2] (setting [6]) and in test [3] (setting [7]) were 14.2 nM, 3.17 nM and 18.2 nM, respectively. Turning to `COc1cccc2c3c([nH]c12)CNCC3` [Example 2, 8-methoxy-1,2,3,4-tetrahydro-9H-pyrido[3,4b]-indole], in test [2], the affinity corresponds to a Ki of 34.5 nM. On the same count and under the same terms, in the case of `CCCN1CCc2c([nH]c3c(OC)cccc23)C1` [Example 3, 8-methoxy-2(N)-propy1,2,3,4-tetrahydro-9H-pyrido[3,4b]-indole] it was 114 nM; in that of `COc1cccc2c3c([nH]c12)CN(C)CC3` [Example 4, 8-methoxy-2(N)-methyl-1,2,3,4-tetrahydro-9H-pyrido[3,4b]-indole], 71.7 nM; in that of `COc1cccc2c3c([nH]c12)CN(CC1CC1)CC3` [Example 5, 8-methoxy-2(N)-cyclopropylmethyl-1,2,3,4-tetrahydro-9H-pyrido[3,4b]-indole], 97.5 nM. Regarding `CN1CCc2c([nH]c3ccc(O)cc23)C1` [Example 6], the Ki in test [2] (setting [6]) worked out at 4610 nM. Regarding `Cc1ccc2c3c([nH]c2c1C)CNCC3` [Example 7, 7,8-dimethyl-1,2,3,4-tetrahydro-9H-pyrido[3,4b]-indole], the Ki in test [2] (setting [6]) amounted to 15.8 nM. Turning to `Cc1cc(Br)c2[nH]c3c(c2c1)CCNC3` [Example 8, 6-methyl-8-bromo-1,2,3,4-tetrahydro-9H-pyrido[3,4b]-indole], the inhibitory constant (Ki) in test [1] (setting [5]) was found to be 34.9 nM; in test [2] (setting [6]) it was 14 nM; in test [4] (Human 2B, Ki from IC50 by Cheng-Prusoff, read-out: Ki Human 2B), 16.4 nM; in test [3] (setting [7]) it was 38.6 nM.

Regarding `Fc1cc(F)c2[nH]c3c(c2c1)CCNC3` [Example 9, 6,8-difluoro-1,2,3,4-tetrahydro-9H-pyrido[3,4b]-indole], affinity in test [2] was put at a Ki of 57.9 nM. As for `Brc1cccc2c3c([nH]c12)CNCC3` [Example 10, 8-bromo-1,2,3,4-tetrahydro-9H-pyrido[3,4b]-indole], the Ki in test [1] is 22.4 nM; in test [2], 6.2 nM; in test [4], 9.68 nM; in test [3] it was 13.2 nM.
